In assay [1] the test system is HCT-116 human colon carcinoma cell line. Nature of the assay: Cell viability assay (SRB) in HCT-116. The conditions noted are these: 72 hours after treatment, read-out: HCT116 IC50. It counts as cell-based. As for the experimental part: (§1) Human colon carcinoma cell line HCT-116 was a kind gift from Igor Ronninson from University of South Caroli, Columbia, USA. Human breast cancer cell line, JIMT-1 was kindly provided by Ali Osmay Güre from Bilkent University, Ankara, Turkey. Cells were cultured in Dulbecco's modified Eagle's medium (Lonza, NJ, USA), supplemented with 10% fetal bovine serum (FBS, Lonza), 1% non-essential amino acid (NEAA), 2 mM L-glutamine (Sigma Aldrich, MO, USA) and 50 U/ml penicillin/streptomycin (P/S). HCT-116 cells were cultured in McCoy's 5A (modified) (Gibco) medium supplemented with FBS, NEAA, L-glutamine and P/S. All cell lines were tested regularly using MycoAlert Mycoplasma Detection Kit (Lonza). The cumulative length of the cells between thawing and use in the experiments was less than 20 passages.
(§2) Newly synthesized molecules were dissolved in 100% DMSO to yield a stock concentration of 10 mM. For cell viability assay, JIMT-1 (3×10^3 cells/well) and HCT-116 (4×10^3), cells were seeded into 96-well plates, and 24 hours after cell seeding inhibitor treatments were performed at different concentrations. Cell viability was measured 72 hours after treatment with Sulforhodamine B (SRB, Sigma Aldrich) assay as recommended by the manufacturer.

For assay [2], the system named is JIMT-1 human breast cancer cell line. In words: Cell viability assay (SRB) in JIMT-1. The conditions noted are these: 72 hours after treatment, read-out: JIMT1 IC50. It counts as cell-based. As for the experimental part: as §1, §2

By IC50 is commonly meant the concentration that inhibits the measured activity by half. As for `COc1ccc(-c2cc(Nc3ccnc(N4CCC(C)CC4)n3)[nH]n2)cc1` [Compound 69, N-(3-(4-methoxyphenyl)-1H-pyrazol-5-yl)-2-(4-methylpiperidin-1-yl)pyrimidin-4-amine], the IC50 in assay [1] is 0.005 µM; in assay [2], 0.025 µM.
The corresponding values for `COc1ccc(-c2cc(Nc3ccnc(N4CCC(C(F)(F)F)CC4)n3)[nH]n2)cc1` [Compound 70, N-(3-(4-methoxyphenyl)-1H-pyrazol-5-yl)-2-(4-(trifluoromethyl)piperidin-1-yl)pyrimidin-4-amine] are 0.028 µM and 0.026 µM.
For `COc1ccc(-c2cc(Nc3ccnc(N4C[C@@H](C)O[C@@H](C)C4)n3)[nH]n2)cc1F` [Compound 86b, 2-((2R,6S)-2,6-dimethylmorpholino)-N-(3-(3-fluoro-4-methoxyphenyl)-1H-pyrazol-5-yl)pyrimidin-4-amine] the same measures were 0.005 µM and 0.007 µM.
The corresponding values for `COc1ccc(-c2cc(Nc3ccnc(N4CCC(C)CC4)n3)[nH]n2)cc1F` [Compound 87, N-(3-(3-fluoro-4-methoxyphenyl)-1H-pyrazol-5-yl)-2-(4-methylpiperidin-1-yl)pyrimidin-4-amine] are 0.025 µM and 0.025 µM.
For the compound `COc1ccc(-c2cc(Nc3ccnc(N4CCC(C(F)(F)F)CC4)n3)[nH]n2)cc1F` [Compound 89, N-(3-(3-fluoro-4-methoxyphenyl)-1H-pyrazol-5-yl)-2-(4-(trifluoromethyl)piperidin-1-yl)pyrimidin-4-amine], the results for the IC50 in assay [1] and in assay [2] were 0.009 µM and 0.031 µM, respectively.
For `COc1ccc(-c2cc(Nc3ccnc(N4CC(C)(C)OC(C)(C)C4)n3)[nH]n2)cc1F` [Compound 90, N-(3-(3-fluoro-4-methoxyphenyl)-1H-pyrazol-5-yl)-2-(2,2,6,6-tetramethylmorpholino)pyrimidin-4-amine] the same measures were 0.733 µM and 0.365 µM.
The corresponding values for `COc1ccc(-c2cc(Nc3ccnc(N4CCOC(C)(C)C4)n3)[nH]n2)cc1F` [Compound 92, 2-(2,2-dimethylmorpholino)-N-(3-(3-fluoro-4-methoxyphenyl)-1H-pyrazol-5-yl)pyrimidin-4-amine] are 0.488 µM and 0.245 µM.
For `COc1ccc(-c2cc(Nc3ccnc(N4CCOC(C)C4)n3)[nH]n2)cc1F` (centres unmarked) [Compound 94, N-(3-(3-fluoro-4-methoxyphenyl)-1H-pyrazol-5-yl)-2-(2-methylmorpholino)pyrimidin-4-amine] the same measures were 0.046 µM and 0.029 µM.
Regarding `COc1ccc(-c2cc(Nc3ccnc(N4CCOC(C(F)(F)F)C4)n3)[nH]n2)cc1F` (centres unmarked) [Compound 96, N-(3-(3-fluoro-4-methoxyphenyl)-1H-pyrazol-5-yl)-2-(2-(trifluoromethyl)morpholino)pyrimidin-4-amine], the figures for the IC50 in assay [1] and in assay [2] were 0.089 µM and 0.047 µM, respectively.
In the case of `COc1ccc(-c2cc(Nc3ccnc(N4C[C@@H](C)O[C@H](C)C4)n3)[nH]n2)cc1F` [Compound 106, 2-((2R,6R)-2,6-dimethylmorpholino)-N-(3-(3-fluoro-4-methoxyphenyl)-1H-pyrazol-5-yl)pyrimidin-4-amine], the results for the IC50 in assay [1] and in assay [2] were 0.091 µM and 0.062 µM, respectively.
In the case of `COc1ccc(-c2cc(Nc3ccnc(N4CCC(C)CC4)n3)[nH]n2)c(F)c1` [Compound 130, N-(3-(2-fluoro-4-methoxyphenyl)-1H-pyrazol-5-yl)-2-(4-methylpiperidin-1-yl)pyrimidin-4-amine], the IC50 in assay [1] stood at 0.007 µM; in assay [2], 0.018 µM.
For `COc1ccc(-c2cc(Nc3ccnc(N4CCC(F)CC4)n3)[nH]n2)c(F)c1` [Compound 131, N-(3-(2-fluoro-4-methoxyphenyl)-1H-pyrazol-5-yl)-2-(4-fluoropiperidin-1-yl)pyrimidin-4-amine] the same measures were 0.047 µM and 0.053 µM.
With `COc1ccc(-c2cc(Nc3ccnc(N4CCC(C(F)(F)F)CC4)n3)[nH]n2)c(F)c1` [Compound 132, N-(3-(2-fluoro-4-methoxyphenyl)-1H-pyrazol-5-yl)-2-(4-(trifluoromethyl)piperidin-1-yl)pyrimidin-4-amine], the values for the IC50 in assay [1] and in assay [2] were 0.038 µM and 0.018 µM, respectively.
For `COc1ccc(-c2cc(Nc3ccnc(N4CC(C)(C)OC(C)(C)C4)n3)[nH]n2)c(F)c1` [Compound 133, N-(3-(2-fluoro-4-methoxyphenyl)-1H-pyrazol-5-yl)-2-(2,2,6,6-tetramethylmorpholino)pyrimidin-4-amine], the IC50 was 6.56 µM in assay [1] and 0.606 µM in assay [2].
For `COc1ccc(-c2cc(Nc3ccnc(N4CCOC(C)(C)C4)n3)[nH]n2)c(F)c1` [Compound 135, 2-(2,2-dimethylmorpholino)-N-(3-(2-fluoro-4-methoxyphenyl)-1H-pyrazol-5-yl)pyrimidin-4-amine] the same measures were 0.88 µM and 0.23 µM.
For `COc1ccc(-c2cc(Nc3ccnc(N4C(C)COCC4C)n3)[nH]n2)c(F)c1` (centres unmarked) [Compound 136, 2-(3,5-dimethylmorpholino)-N-(3-(2-fluoro-4-methoxyphenyl)-1H-pyrazol-5-yl)pyrimidin-4-amine] the same measures were 1.3 µM and 0.895 µM.
For `COc1ccc(-c2cc(Nc3ccnc(N4CCOC(C)C4)n3)[nH]n2)c(F)c1` (centres unmarked) [Compound 137, N-(3-(2-fluoro-4-methoxyphenyl)-1H-pyrazol-5-yl)-2-(2-methylmorpholino)pyrimidin-4-amine] the same measures were 0.059 µM and 0.024 µM.
As for `COc1ccc(-c2cc(Nc3ccnc(N4CCOCC4C)n3)[nH]n2)c(F)c1` (centres unmarked) [Compound 138, N-(3-(2-fluoro-4-methoxyphenyl)-1H-pyrazol-5-yl)-2-(3-methylmorpholino)pyrimidin-4-amine], the IC50 in assay [1] was 0.052 µM; in assay [2] it was 0.015 µM.
Regarding `COc1ccc(-c2cc(Nc3ccnc(N4CCOC(C(F)(F)F)C4)n3)[nH]n2)c(F)c1` (centres unmarked) [Compound 139, N-(3-(2-fluoro-4-methoxyphenyl)-1H-pyrazol-5-yl)-2-(2-(trifluoromethyl)morpholino)pyrimidin-4-amine], the IC50 in assay [1] was 0.146 µM; in assay [2] it was 0.091 µM.
For `COc1ccc(-c2cc(Nc3ccnc(N4CC5COCC5C4)n3)[nH]n2)c(F)c1` (centres unmarked) [Compound 140, N-(3-(2-fluoro-4-methoxyphenyl)-1H-pyrazol-5-yl)-2-(tetrahydro-1H-furo[3,4-c]pyrrol-5(3H)-yl)pyrimidin-4-amine] the same measures were 0.457 µM and 0.107 µM.
The corresponding values for `COc1ccc(-c2cc(Nc3ccnc(N4CC5CC5C4)n3)[nH]n2)c(F)c1` (centres unmarked) [Compound 141, 2-(3-azabicyclo[3.1.0]hexan-3-yl)-N-(3-(2-fluoro-4-methoxyphenyl)-1H-pyrazol-5-yl)pyrimidin-4-amine] are 0.163 µM and 0.041 µM.
The corresponding values for `COc1ccc(-c2cc(Nc3ccnc(N4CCC5(CCC5)CC4)n3)[nH]n2)c(F)c1` [Compound 142, N-(3-(2-fluoro-4-methoxyphenyl)-1H-pyrazol-5-yl)-2-(7-azaspiro[3.5]nonan-7-yl)pyrimidin-4-amine] are 1.21 µM and 0.266 µM.
As for `COc1ccc(-c2cc(Nc3ccnc(N4CCC(C)(C)CC4)n3)[nH]n2)c(F)c1` [Compound 143, 2-(4,4-dimethylpiperidin-1-yl)-N-(3-(2-fluoro-4-methoxyphenyl)-1H-pyrazol-5-yl)pyrimidin-4-amine], the IC50 in assay [1] was determined as 1.01 µM; in assay [2], 0.426 µM.
For the compound `COc1ccc(-c2cc(Nc3ccnc(N4CCC5(CC4)CC5)n3)[nH]n2)c(F)c1` [Compound 144, N-(3-(2-fluoro-4-methoxyphenyl)-1H-pyrazol-5-yl)-2-(6-azaspiro[2.5]octan-6-yl)pyrimidin-4-amine], the IC50 in assay [1] stood at 0.33 µM; in assay [2] it was 0.119 µM.
Regarding `COc1ccc(-c2cc(Nc3ccnc(N4C5CCC4CC(C)C5)n3)[nH]n2)c(F)c1` (centres unmarked) [Compound 145, N-(3-(2-fluoro-4-methoxyphenyl)-1H-pyrazol-5-yl)-2-(3-methyl-8-azabicyclo[3.2.1]octan-8-yl)pyrimidin-4-amine], the IC50 was found to be 0.279 µM in assay [1] and 0.101 µM in assay [2].
In the case of `COc1ccc(-c2cc(Nc3ccnc(N4CC5(COC5)C4)n3)[nH]n2)c(F)c1` [Compound 146, N-(3-(2-fluoro-4-methoxyphenyl)-1H-pyrazol-5-yl)-2-(2-oxa-6-azaspiro[3.3]heptan-6-yl)pyrimidin-4-amine], the IC50 in assay [1] was 0.534 µM; in assay [2], 0.479 µM.
For `COc1ccc(-c2cc(Nc3ccnc(N4CCN(C)CC4)n3)[nH]n2)c(F)c1` [Compound 148, N-(3-(2-fluoro-4-methoxyphenyl)-1H-pyrazol-5-yl)-2-(4-methylpiperazin-1-yl)pyrimidin-4-amine] the same measures were 0.986 µM and 0.213 µM.
As to `COc1ccc(-c2cc(Nc3ccnc(N4C[C@@H](C)O[C@H](C)C4)n3)[nH]n2)c(F)c1` [Compound 149, 2-((2R,6R)-2,6-dimethylmorpholino)-N-(3-(2-fluoro-4-methoxyphenyl)-1H-pyrazol-5-yl)pyrimidin-4-amine], the IC50 in assay [1] worked out at 0.115 µM; in assay [2] it was 0.065 µM.

The values above are taken from patent US20240374590A1, “COMPOSITIONS AND METHODS FOR TREATING CANCER” (A2A PHARMACEUTICALS, INC., priority 2021, published 2024).
